In ChEMBL document CHEMBL1150788, “In vitro susceptibility of Sporothrix schenckii to six antifungal agents determined using three different methods” (2007):

Legend:
Type in all cases: functional
Sporothrix schenckii [1] = assay: Antifungal activity against Sporothrix schenckii P3287 isolate from cutaneous-lymphatic sporotrichosis patient after 72 hrs by ATB Fungus 2 method
Sporothrix schenckii [2] = assay: Antifungal activity against Sporothrix schenckii P0019 isolate from cutaneous-lymphatic sporotrichosis patient after 72 hrs by Sensititre YeastOne method
Sporothrix schenckii [3] = assay: Antifungal activity against Sporothrix schenckii PSSA81 isolate from cutaneous-lymphatic sporotrichosis patient after 72 hrs by modified NCCLS M38-A method
Sporothrix schenckii [4] = assay: Antifungal activity against Sporothrix schenckii P25013 isolate from cutaneous-lymphatic sporotrichosis patient after 72 hrs by Sensititre YeastOne method
Sporothrix schenckii [5] = assay: Antifungal activity against Sporothrix schenckii P25013 isolate from cutaneous-lymphatic sporotrichosis patient after 72 hrs by ATB Fungus 2 method
Sporothrix schenckii [6] = assay: Antifungal activity against Sporothrix schenckii P20825 isolate from cutaneous-lymphatic sporotrichosis patient after 72 hrs by modified NCCLS M38-A method
Sporothrix schenckii [7] = assay: Antifungal activity against Sporothrix schenckii P20825 isolate from cutaneous-lymphatic sporotrichosis patient after 72 hrs by Sensititre YeastOne method
Sporothrix schenckii [8] = assay: Antifungal activity against Sporothrix schenckii P20825 isolate from cutaneous-lymphatic sporotrichosis patient after 72 hrs by ATB Fungus 2 method
Sporothrix schenckii [9] = assay: Antifungal activity against Sporothrix schenckii P30019 isolate from cutaneous-lymphatic sporotrichosis patient after 72 hrs by modified NCCLS M38-A method
Sporothrix schenckii [10] = assay: Antifungal activity against Sporothrix schenckii P30019 isolate from cutaneous-lymphatic sporotrichosis patient after 72 hrs by Sensititre YeastOne method
Sporothrix schenckii [11] = assay: Antifungal activity against Sporothrix schenckii P30019 isolate from cutaneous-lymphatic sporotrichosis patient after 72 hrs by ATB Fungus 2 method
Sporothrix schenckii [12] = assay: Antifungal activity against Sporothrix schenckii P14954 isolate from cutaneous-lymphatic sporotrichosis patient after 72 hrs by modified NCCLS M38-A method
Sporothrix schenckii [13] = assay: Antifungal activity against Sporothrix schenckii P14954 isolate from cutaneous-lymphatic sporotrichosis patient after 72 hrs by Sensititre YeastOne method
Sporothrix schenckii [14] = assay: Antifungal activity against Sporothrix schenckii MRSS4 isolate from cutaneous-lymphatic sporotrichosis patient after 72 hrs by modified NCCLS M38-A method
Sporothrix schenckii [15] = assay: Antifungal activity against Sporothrix schenckii MRSS4 isolate from cutaneous-lymphatic sporotrichosis patient after 72 hrs by ATB Fungus 2 method
Sporothrix schenckii [16] = assay: Antifungal activity against Sporothrix schenckii P24223 isolate from cutaneous-lymphatic sporotrichosis patient after 72 hrs by modified NCCLS M38-A method
Sporothrix schenckii [17] = assay: Antifungal activity against Sporothrix schenckii P24223 isolate from cutaneous-lymphatic sporotrichosis patient after 72 hrs by Sensititre YeastOne method
Sporothrix schenckii [18] = assay: Antifungal activity against Sporothrix schenckii P24223 isolate from cutaneous-lymphatic sporotrichosis patient after 72 hrs by ATB Fungus 2 method
Sporothrix schenckii [19] = assay: Antifungal activity against Sporothrix schenckii PSCC1 isolate from cutaneous-lymphatic sporotrichosis patient after 72 hrs by modified NCCLS M38-A method
Sporothrix schenckii [20] = assay: Antifungal activity against Sporothrix schenckii PSCC1 isolate from cutaneous-lymphatic sporotrichosis patient after 72 hrs by Sensititre YeastOne method
Sporothrix schenckii [21] = assay: Antifungal activity against Sporothrix schenckii P24255 isolate from cutaneous-lymphatic sporotrichosis patient after 72 hrs by Sensititre YeastOne method
Sporothrix schenckii [22] = assay: Antifungal activity against Sporothrix schenckii P24255 isolate from cutaneous-lymphatic sporotrichosis patient after 72 hrs by ATB Fungus 2 method
Sporothrix schenckii [23] = assay: Antifungal activity against Sporothrix schenckii P10012 isolate from cutaneous-lymphatic sporotrichosis patient after 72 hrs by modified NCCLS M38-A method
Sporothrix schenckii [24] = assay: Antifungal activity against Sporothrix schenckii P10012 isolate from cutaneous-lymphatic sporotrichosis patient after 72 hrs by Sensititre YeastOne method
Sporothrix schenckii [25] = assay: Antifungal activity against Sporothrix schenckii P10012 isolate from cutaneous-lymphatic sporotrichosis patient after 72 hrs by ATB Fungus 2 method
Sporothrix schenckii [26] = assay: Antifungal activity against Sporothrix schenckii P1621 isolate from cutaneous-lymphatic sporotrichosis patient after 72 hrs by modified NCCLS M38-A method
Sporothrix schenckii [27] = assay: Antifungal activity against Sporothrix schenckii P1621 isolate from cutaneous-lymphatic sporotrichosis patient after 72 hrs by Sensititre YeastOne method
Sporothrix schenckii [28] = assay: Antifungal activity against Sporothrix schenckii SSA29 isolate from cutaneous-lymphatic sporotrichosis patient after 72 hrs by modified NCCLS M38-A method
Sporothrix schenckii [29] = assay: Antifungal activity against Sporothrix schenckii SSA29 isolate from cutaneous-lymphatic sporotrichosis patient after 72 hrs by ATB Fungus 2 method
Sporothrix schenckii [30] = assay: Antifungal activity against Sporothrix schenckii P26187 isolate from cutaneous-lymphatic sporotrichosis patient after 72 hrs by modified NCCLS M38-A method
Sporothrix schenckii [31] = assay: Antifungal activity against Sporothrix schenckii P26187 isolate from cutaneous-lymphatic sporotrichosis patient after 72 hrs by Sensititre YeastOne method
Sporothrix schenckii [32] = assay: Antifungal activity against Sporothrix schenckii P26187 isolate from cutaneous-lymphatic sporotrichosis patient after 72 hrs by ATB Fungus 2 method
Sporothrix schenckii [33] = assay: Antifungal activity against Sporothrix schenckii PGAC0016 isolate from cutaneous-lymphatic sporotrichosis patient after 72 hrs by modified NCCLS M38-A method
Sporothrix schenckii [34] = assay: Antifungal activity against Sporothrix schenckii PGAC0016 isolate from cutaneous-lymphatic sporotrichosis patient after 72 hrs by ATB Fungus 2 method
Sporothrix schenckii [35] = assay: Antifungal activity against Sporothrix schenckii PJRC002 isolate from cutaneous-lymphatic sporotrichosis patient after 72 hrs by modified NCCLS M38-A method
Sporothrix schenckii [36] = assay: Antifungal activity against Sporothrix schenckii P14036 isolate from cutaneous-lymphatic sporotrichosis patient after 72 hrs by modified NCCLS M38-A method
Sporothrix schenckii [37] = assay: Antifungal activity against Sporothrix schenckii P14036 isolate from cutaneous-lymphatic sporotrichosis patient after 72 hrs by ATB Fungus 2 method
Sporothrix schenckii [38] = assay: Antifungal activity against Sporothrix schenckii P30915 isolate from cutaneous-lymphatic sporotrichosis patient after 72 hrs by ATB Fungus 2 method
Pichia kudriavzevii [39] = assay: Antifungal activity against Candida krusei ATCC 6258 […] after 72 hrs by Sensititre YeastOne method; conditions: ATCC 6258, 72 h
Pichia kudriavzevii [40] = assay: Antifungal activity against Candida krusei ATCC 6258 […] after 72 hrs by ATB Fungus 2 method; conditions: ATCC 6258, 72 h
Candida parapsilosis [41] = assay: Antifungal activity against Candida parapsilosis ATCC 22019 […] after 72 hrs by modified NCCLS M38-A method; conditions: Lodderomyces parapsilosis, ATCC 22019, 72 h
Candida parapsilosis [42] = assay: Antifungal activity against Candida parapsilosis ATCC 22019 […] after 72 hrs by ATB Fungus 2 method; conditions: Lodderomyces parapsilosis, ATCC 22019, 72 h
Sporothrix schenckii [43] = assay: Antifungal activity against Sporothrix schenckii isolate from cutaneous-lymphatic sporotrichosis patient after 72 hrs by modified NCCLS M38-A method
Sporothrix schenckii [44] = assay: Antifungal activity against Sporothrix schenckii isolate from cutaneous-lymphatic sporotrichosis patient after 72 hrs by Sensititre YeastOne method
Sporothrix schenckii [45] = assay: Antifungal activity against Sporothrix schenckii isolate from cutaneous-lymphatic sporotrichosis patient after 72 hrs by ATB Fungus 2 method

OC(Cn1cncn1)(Cn1cncn1)c1ccc(F)cc1F [FLUCONAZOLE]
> 128 µg/mL: MIC (Sporothrix schenckii [1]) | MIC (Sporothrix schenckii [5]) | MIC (Sporothrix schenckii [8]) | MIC (Sporothrix schenckii [10]) | MIC (Sporothrix schenckii [11]) | MIC (Sporothrix schenckii [15]) | MIC (Sporothrix schenckii [18]) | MIC (Sporothrix schenckii [25]) | MIC (Sporothrix schenckii [29]) | MIC (Sporothrix schenckii [32]) | MIC (Sporothrix schenckii [34]) | MIC (Sporothrix schenckii [36]) | MIC (Sporothrix schenckii [37]) | MIC (Sporothrix schenckii [38]) | MIC50 (Sporothrix schenckii [45]) | MIC90 (Sporothrix schenckii [45])
1 µg/mL: MIC (Candida parapsilosis [41])
64 µg/mL: MIC (Pichia kudriavzevii [39])
128 µg/mL: MIC (Sporothrix schenckii [4]) | MIC (Sporothrix schenckii [22]) | MIC (Sporothrix schenckii [31])
> 64 µg/mL: MIC (Sporothrix schenckii [3]) | MIC (Sporothrix schenckii [6]) | MIC (Sporothrix schenckii [9]) | MIC (Sporothrix schenckii [12]) | MIC (Sporothrix schenckii [14]) | MIC (Sporothrix schenckii [16]) | MIC (Sporothrix schenckii [19]) | MIC (Sporothrix schenckii [23]) | MIC (Sporothrix schenckii [26]) | MIC (Sporothrix schenckii [28]) | MIC (Sporothrix schenckii [30]) | MIC (Sporothrix schenckii [33]) | MIC (Sporothrix schenckii [35]) | MIC50 (Sporothrix schenckii [43]) | MIC90 (Sporothrix schenckii [43])
> 256 µg/mL: MIC (Sporothrix schenckii [2]) | MIC (Sporothrix schenckii [13]) | MIC (Sporothrix schenckii [17]) | MIC (Sporothrix schenckii [20]) | MIC (Sporothrix schenckii [21]) | MIC (Sporothrix schenckii [24]) | MIC (Sporothrix schenckii [27]) | MIC50 (Sporothrix schenckii [44]) | MIC90 (Sporothrix schenckii [44])
4 µg/mL: MIC (Candida parapsilosis [42])
256 µg/mL: MIC (Sporothrix schenckii [7])
32 µg/mL: MIC (Pichia kudriavzevii [40])

CCC(C)n1ncn(-c2ccc(N3CCN(c4ccc(OCC5COC(Cn6cncn6)(c6ccc(Cl)cc6Cl)O5)cc4)CC3)cc2)c1=O (stereo unspecified) [ITRACONAZOLE]
8 µg/mL: MIC (Sporothrix schenckii [16])
≤ 0.125 µg/mL: MIC (Candida parapsilosis [42])
1 µg/mL: MIC (Sporothrix schenckii [5]) | MIC (Sporothrix schenckii [8]) | MIC (Sporothrix schenckii [11]) | MIC (Sporothrix schenckii [22]) | MIC (Sporothrix schenckii [26]) | MIC (Sporothrix schenckii [37]) | MIC (Pichia kudriavzevii [39]) | MIC50 (Sporothrix schenckii [45])
0.25 µg/mL: MIC (Sporothrix schenckii [4]) | MIC (Sporothrix schenckii [10]) | MIC (Sporothrix schenckii [13]) | MIC (Sporothrix schenckii [19]) | MIC (Sporothrix schenckii [20]) | MIC (Sporothrix schenckii [21]) | MIC (Sporothrix schenckii [24]) | MIC (Sporothrix schenckii [27]) | MIC (Sporothrix schenckii [35]) | MIC50 (Sporothrix schenckii [44]) | MIC90 (Sporothrix schenckii [44])
2 µg/mL: MIC (Sporothrix schenckii [1]) | MIC (Sporothrix schenckii [15]) | MIC (Sporothrix schenckii [18]) | MIC (Sporothrix schenckii [25]) | MIC (Sporothrix schenckii [32]) | MIC (Sporothrix schenckii [34]) | MIC (Sporothrix schenckii [38]) | MIC90 (Sporothrix schenckii [45])
0.5 µg/mL: MIC (Sporothrix schenckii [3]) | MIC (Sporothrix schenckii [6]) | MIC (Sporothrix schenckii [9]) | MIC (Sporothrix schenckii [12]) | MIC (Sporothrix schenckii [14]) | MIC (Sporothrix schenckii [17]) | MIC (Sporothrix schenckii [23]) | MIC (Sporothrix schenckii [28]) | MIC (Sporothrix schenckii [29]) | MIC (Sporothrix schenckii [30]) | MIC (Sporothrix schenckii [33]) | MIC (Sporothrix schenckii [36]) | MIC (Pichia kudriavzevii [40]) | MIC (Candida parapsilosis [41]) | MIC50 (Sporothrix schenckii [43]) | MIC90 (Sporothrix schenckii [43])
0.13 µg/mL: MIC (Sporothrix schenckii [2]) | MIC (Sporothrix schenckii [7]) | MIC (Sporothrix schenckii [31])
